Data: publication PMC5059851, “Inhibition of Hedgehog-dependent tumors and cancer stem cells by a newly identified naturally occurring chemotype” (Cell Death & Disease, 2016)

Columns and labels:
Gli1 mRNA [1] = assay: Gli1 mRNA (qRT-PCR) in ASZ001 BCC cells; type: cell-based, mouse; conditions: after drug treatment
Protocol: After the indicated times, a trypan blue count was performed to determine the growth rate.
(§1) Total RNA was isolated with Trizol (Invitrogen/Life Technologies, Carlsbad, CA, USA) and reverse transcribed with SensiFAST cDNA Synthesis Kit (Bioline Reagents Limited, London, UK). Quantitative real-time PCR (Q-PCR) analysis of Gli1, Gli2, Ptch1, Bmp2, Pfkfb3, CycD1, CycD2, Pcna, Oct4, Nanog, β-2 microglobulin, β-actin and HPRT mRNA expression was performed on each cDNA sample using the VIIA7 Real Time PCR System employing Assay-on-Demand Reagents (Life Technologies).

[2] = test system: Hh target genes (Gli1 and others) in Ptch1^−/− MEFs; assay: qRT-PCR of endogenous Hh target genes in Ptch1−/− MEFs; type: cell-based, mouse; conditions: 5 μM, 48 h
Description: For this reason, we focused further studies only on 12. To investigate the inhibitory properties of 12 on Hh pathway, we analyzed endogenous Hh target gene activation in genetically defined Ptch1^−/− mouse embryonic fibroblasts (Ptch1^−/− MEFs) (Figure 2a). In these cells, constitutive activation of the Hh pathway is the consequence of the loss of repressive receptor Ptch1 gene, thus determining high expression levels of Hh target.
Figure 2 Compound 12 inhibits Hh signaling without affecting AP1/Jun and WNT/β-Catenin pathways. (a) The graphs show the Hh target genes expression levels in Ptch1^−/− MEFs treated for 48 h with 12 or DMSO as control. mRNA levels were determined by quantitative real-time PCR (qRT-PCR) normalized to endogenous control (β2-microglobulin and HPRT). Pfkfb3 gene was used as negative control. *P<0.05 versus CTR. […]
as §1, with “Technologies). […]” for “Technologies).”

murine Smo WT = target: T1, murine Smo WT (Mus musculus, UniProt P56726); assay: Bodipy-Cyclopamine (BC) binding assay, HEK293T cells transfected with mouse Smo WT
T1 construct: Flag; expressed in transfected cells; host or cells: HEK293T
T1 sequence (P56726 33-793): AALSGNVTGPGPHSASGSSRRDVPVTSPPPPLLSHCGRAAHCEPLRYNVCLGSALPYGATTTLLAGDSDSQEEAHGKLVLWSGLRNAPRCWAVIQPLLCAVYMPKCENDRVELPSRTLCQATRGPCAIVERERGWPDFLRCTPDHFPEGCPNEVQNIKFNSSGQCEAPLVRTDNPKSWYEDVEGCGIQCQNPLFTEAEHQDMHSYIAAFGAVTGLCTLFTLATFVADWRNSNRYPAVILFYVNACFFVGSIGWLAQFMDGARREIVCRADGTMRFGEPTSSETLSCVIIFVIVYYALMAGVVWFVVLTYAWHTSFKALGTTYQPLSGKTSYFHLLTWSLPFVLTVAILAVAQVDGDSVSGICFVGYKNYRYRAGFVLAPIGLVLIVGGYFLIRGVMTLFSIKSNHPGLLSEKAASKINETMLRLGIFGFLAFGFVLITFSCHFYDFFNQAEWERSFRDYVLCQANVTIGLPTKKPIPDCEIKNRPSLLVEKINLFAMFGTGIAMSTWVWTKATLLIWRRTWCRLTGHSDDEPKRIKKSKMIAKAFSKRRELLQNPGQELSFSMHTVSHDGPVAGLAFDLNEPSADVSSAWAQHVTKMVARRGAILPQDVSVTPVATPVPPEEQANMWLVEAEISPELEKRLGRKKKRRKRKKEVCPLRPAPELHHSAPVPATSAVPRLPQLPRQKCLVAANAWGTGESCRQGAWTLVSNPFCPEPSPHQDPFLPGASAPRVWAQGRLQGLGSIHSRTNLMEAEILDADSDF
Protocol: Cells were washed in PBS supplemented with 0.5% fetal bovine serum, fixed in 4% paraformaldehyde in phosphate-buffered saline (PBS) for 10 min, and incubated for 2 h at 37 °C both in the same medium supplemented with Bodipy-Cyclopamine (5 nM) and the studied compounds. The cells were permeabilized with Triton X100 (Sigma) 0.2%. Dako Fluorescent mounting (Dako, Carpinteria, CA, USA) was used as mounting medium and Hoechst reagent for staining of the cell nuclei. Bodipy (green) and Hoechst (blue) signals were analyzed in three to four representative fields per coverslip (× 20 magnification, 1000 cells/field). Data were expressed as percentage of BC incorporation observed with BC alone.[95]
BC binding (green) is visualized using fluorescence microscopy in a representative field (a). […] Quantitative data are the average BC intensity from five independent fluorescence microscopy images.

[3] = test system: human medulloblastoma DAOY cells; assay: Trypan blue growth count of DAOY cells; type: cell-based; conditions: versus Cyclopamine, Vismodegib, LDE-225
Protocol: After the indicated times, a trypan blue count was performed to determine the growth rate. […] Results were normalized to endogenous control (β-actin and HPRT).
Cell proliferation was evaluated by BrdU detection (Roche, Welwyn Garden City, UK). Briefly, after the BrdU pulse (24 h for GCPs) cells were fixed with 4% paraformaldehyde and permeabilized with 0.2% Triton X-100, and BrdU detection was performed according to the manufacturer's instructions. Nuclei were counterstained with Hoechst reagent. At least 500 nuclei were counted in triplicate, and the number of BrdU-positive nuclei was recorded. To determine the growth rate of viable cells, a trypan blue count was performed after a treatment period of 24–48–72 h with studied compound.

Gli1 mRNA [4] = assay: Gli1 mRNA (qRT-PCR) in primary MB cells from Ptch1+/− mice; type: cell-based, mouse; conditions: ex vivo cultures from Ptch1^+/− mice MBs
Protocol: as §1

COc1ccc(C=CC(=O)c2cc(OC)c(OC)cc2OC)cc1OC [Compound 12, 3-(3,4-dimethoxy-phenyl)-1-(2,4,5-trimethoxy-phenyl)-2-propen-1-one]
Gli1 mRNA levels in ASZ001 BCC cells (Gli1 mRNA [1]): decrease of Gli1 mRNA levels | mRNA levels of endogenous Hh target genes, including Gli1 [2]: significantly reduced | IC50 (murine Smo WT; BC (5 nM) displacement, transiently transfected 293T cells): 45.6 µM | inhibition of BC binding to murine Smo WT (murine Smo WT; HEK293T cells, various concentrations): significantly inhibited BC binding | inhibition of DAOY cell proliferation [3]: higher activity than other Smo antagonists | Gli1 mRNA levels in primary MB cells (Gli1 mRNA [4]): decrease of Gli1 mRNA levels
